Data set [1] concerns the target T1, Aromatase (Homo sapiens, UniProt P11511).
T1 sequence (P11511 whole entry): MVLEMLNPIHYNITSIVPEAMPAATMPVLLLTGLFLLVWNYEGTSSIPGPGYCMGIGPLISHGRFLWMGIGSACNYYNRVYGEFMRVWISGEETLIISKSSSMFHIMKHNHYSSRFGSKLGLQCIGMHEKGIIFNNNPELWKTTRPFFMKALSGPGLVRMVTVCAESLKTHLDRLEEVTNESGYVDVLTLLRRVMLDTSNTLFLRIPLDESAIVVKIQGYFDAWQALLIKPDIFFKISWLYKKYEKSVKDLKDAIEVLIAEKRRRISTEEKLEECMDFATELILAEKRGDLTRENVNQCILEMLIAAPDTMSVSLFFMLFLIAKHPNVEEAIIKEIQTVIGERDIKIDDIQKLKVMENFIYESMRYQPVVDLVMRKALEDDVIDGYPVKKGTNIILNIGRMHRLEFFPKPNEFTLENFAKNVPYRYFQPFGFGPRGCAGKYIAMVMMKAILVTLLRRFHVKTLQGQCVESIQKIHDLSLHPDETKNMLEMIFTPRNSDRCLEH
As to the kind of experiment: Inhibition of human placental microsome aromatase using [1beta3H]-androstenedione as substrate measured after 15 mins in presence of NADPH by liquid scintillation counting method. The format is microsomes, Placenta. Conditions: for inhibition (INH): human, microsomes, 0.25 h.

Data set [2] deals with T1, Aromatase. As to the kind of experiment: Inhibition of human placental microsome aromatase at 2 uM using [1beta3H]-androstenedione as substrate measured after 15 mins in presence of NADPH by liquid scintillation counting method relative to control. Format: microsomes, Placenta. Conditions: 0.25 h.
In data set [3] the target is T1, Aromatase. As to the kind of experiment: Inhibition of […] aromatase expressed in human MCF7 cells at 10 uM using [1beta3H]-androstenedione as substrate measured after 1 hr in presence of progesterone relative to control.
The subject of a further data set is MCF7. As to the kind of experiment: Induction of crystal formation in human MCF7 cells transfected with human placental microsome aromatase at 10 uM measured after 1 hr. The format is functional, cell-based.
Data set [4] has as its target T1, Aromatase. Briefly: Competitive reversible inhibition of human placental microsome aromatase using varying levels of [1beta3H]-androstenedione as substrate measured after 5 mins in presence of NADPH by Dixon-plot analysis. Conditions: read-out: Ki(app). Format: microsomes, Placenta.
Data set [5] addresses T1, Aromatase. As to the kind of experiment: Ratio of Km to Ki for human placental microsome aromatase using varying levels of [1beta3H]-androstenedione as substrate measured after 5 mins in presence of NADPH by Dixon-plot analysis. The arrangement: species or system Placenta. Particulars: microsomes.
For data set [6], the target named is T1, Aromatase. Briefly: Competitive reversible inhibition of human placental microsome aromatase using varying levels of [1beta3H]-androstenedione as substrate measured after 5 mins in presence of NADPH by Lineweaver-burk plot analysis. Also on record: species or system Placenta. Conditions: microsomes.
Data set [7] concerns the target T1, Aromatase. Briefly: Competitive irreversible inhibition of human placental microsome aromatase using varying levels of [1beta3H]-androstenedione as substrate measured after 5 mins in presence of NADPH by Dixon-plot analysis. The format is microsomes, Placenta. Conditions: read-out: Ki(app).
For data set [8], the target named is T1, Aromatase. As to the kind of experiment: Competitive reversible inhibition of human placental microsome aromatase assessed as substrate Vmax per ug protein using varying levels of [1beta3H]-androstenedione as substrate measured after 5 mins in presence of NADPH by Dixon-plot analysis. Also on record: species or system Placenta. Particulars: microsomes.
In data set [9] the target is T1, Aromatase. As to the kind of experiment: Competitive irreversible inhibition of human placental microsome aromatase using varying levels of [1beta3H]-androstenedione as substrate measured after 5 mins in presence of NADPH by Lineweaver-burk plot analysis. The arrangement: species or system Placenta. Conditions: microsomes.

From ChEMBL document CHEMBL4390669, “C-6α- vs C-7α-Substituted Steroidal Aromatase Inhibitors: Which Is Better? Synthesis, Biochemical Evaluation, Docking Studies, and Structure-Activity Relationships” (J Med Chem, 2019) come the findings set out here.

Calls of active or inactive are those of the source. The rule behind the calls is not given here.

For the compound `C=CC[C@H]1C[C@@H]2[C@H](CC[C@]3(C)C(=O)CC[C@@H]23)[C@@]2(C)CCCC=C12`, the half-maximal inhibitory concentration (IC50) – broadly, the concentration at which inhibition is half-maximal – at Aromatase [1] was determined as 210 nM. In addition, the inhibition – broadly, how much of the control response was suppressed – at 2 µM at Aromatase [2] was found to be 92.4%. Besides, the inhibition at 10 µM on Aromatase [3] came to 84.1%.

For the compound `C[C@]12CCC(=O)C=C1[C@@H](O)C[C@@H]1[C@@H]2CC[C@]2(C)C(=O)CC[C@@H]12`, the IC50 on Aromatase [1] is 880 nM. The inhibition at 2 µM at Aromatase [2] amounted to 90.7%. The inhibition at 10 µM on Aromatase [3] came to 88.4%.

For `C[C@H]1C[C@H]2[C@@H]3CCC(=O)[C@@]3(C)CC[C@@H]2[C@@]2(C)CCC[C@@H]3O[C@]312`, the inhibition at 2 µM on Aromatase [2] turned out to be 76.2%.

On to `C[C@@H]1CC2=CCCC[C@]2(C)[C@H]2CC[C@]3(C)C(=O)CC[C@H]3[C@H]12`, for which the half-inhibitory concentration (IC50) at Aromatase [1] is 405 nM. Also, the inhibition at 2 µM on Aromatase [2] came out at 97.4%. For the same compound, the inhibition at 10 µM on Aromatase [3] came to 89.5%.

For `C=CC[C@@H]1CC2=C(O)C(=O)CC[C@]2(C)[C@H]2CC[C@]3(C)C(=O)CC[C@H]3[C@H]12`, the result with MCF7 was Active. Also, on Aromatase [1], the IC50 is 110 nM and the “inhibition (INH)” value is “Dose-dependent effect”. Further, the inhibition at 2 µM on Aromatase [2] is 91.8%.

With `C=CC[C@@H]1CC2=CC(=O)CC[C@]2(C)[C@H]2CC[C@]3(C)C(=O)CC[C@H]3[C@H]12`, at Aromatase [3], the inhibition at 10 µM is 92.6%.

Turning to `C[C@H]1C[C@H]2[C@@H]3CCC(=O)[C@@]3(C)CC[C@@H]2[C@@]2(C)CCC[C@H]3O[C@]132`, the inhibition at 2 µM at Aromatase [2] was 58.7%.

Consider `C[C@H]1C[C@@H]2[C@H](CC[C@]3(C)C(=O)CC[C@@H]23)[C@@]2(C)CCC(=O)C=C12`, for which the Ki came to 25 nM on Aromatase [4] and 22.5 nM on Aromatase [7]. The IC50 on Aromatase [1] was 60 nM. The “inhibition (INH)” value at Aromatase [1] is on record as “Dose-dependent effect”; at Aromatase [6], “Active”. The Ratio at Aromatase [5] was 2.53. In addition, the inhibition at 2 µM on Aromatase [2] stood at 98.7%. At Aromatase [3], the inhibition at 10 µM came out at 98.6%. The Vmax (usually the top rate of the reaction or transport when substrate is in excess) on Aromatase [8] came out at 0.0191 nmol/min.

`C[C@]12CCC(=O)C=C1[C@H](O)C[C@@H]1[C@@H]2CC[C@]2(C)C(=O)CC[C@@H]12`: the IC50 on Aromatase [1] amounted to 840 nM. Besides, the inhibition at 2 µM on Aromatase [2] came out at 88.6%. Moreover, at Aromatase [3], the inhibition at 10 µM is 88.2%.

Turning to `C=CC[C@H]1C[C@@H]2[C@H](CC[C@]3(C)C(=O)CC[C@@H]23)[C@@]2(C)C=CC(=O)C=C12`, on Aromatase [1], the IC50 stood at 55 nM and the “inhibition (INH)” value is reported as “Dose-dependent effect”. Further, the Ratio at Aromatase [5] amounted to 2.81. Moreover, at Aromatase [9], the “inhibition (INH)” value was “Active”. Also, at Aromatase [2], the inhibition at 2 µM was determined as 97.6%. Moreover, the inhibition at 10 µM at Aromatase [3] came out at 99.2%.

As for `C[C@H]1C[C@@H]2[C@H](CC[C@]3(C)C(=O)CC[C@@H]23)[C@@]2(C)CC[C@H]3O[C@H]3[C@H]12`, the IC50 at Aromatase [1] was found to be 175 nM. For the same compound, the inhibition at 2 µM on Aromatase [2] was determined as 96.7%. Further, the inhibition at 10 µM at Aromatase [3] was determined as 84.2%.

As for `C[C@@H]1CC2=CC(=O)CC[C@]2(C)[C@H]2CC[C@]3(C)C(=O)CC[C@H]3[C@H]12`, the 50% inhibitory concentration (IC50) on Aromatase [1] was determined as 270 nM. The inhibition at 2 µM at Aromatase [2] was 94.3%. The inhibition at 10 µM at Aromatase [3] turned out to be 90.8%.

Turning to `C[C@]12CCC(=O)C(O)=C1CC[C@@H]1[C@@H]2CC[C@]2(C)C(=O)CC[C@@H]12` [FORMESTANE], on Aromatase [2], the inhibition at 2 µM amounted to 99.2%. In addition, at Aromatase [3], the inhibition at 10 µM stood at 97.1%.

As for `C[C@@H]1C[C@@]23O[C@@H]2CCC[C@]3(C)[C@H]2CC[C@]3(C)C(=O)CC[C@H]3[C@H]12`, on Aromatase [2], the inhibition at 2 µM was 64.9%.

`C=CC[C@@H]1CC2=CCCC[C@]2(C)[C@H]2CC[C@]3(C)C(=O)CC[C@H]3[C@H]12`: at Aromatase [3], the inhibition at 10 µM worked out at 74.7%.

On to `C=CC[C@H]1C[C@@H]2[C@H](CC[C@]3(C)C(=O)CC[C@@H]23)[C@@]2(C)CCC(=O)C(O)=C12`, for which the 50% inhibitory concentration (IC50) at Aromatase [1] was determined as 520 nM. Further, the inhibition at 2 µM at Aromatase [2] was found to be 90.1%. For the same compound, the inhibition at 10 µM on Aromatase [3] was 80.7%.

Take `C=CC[C@H]1C[C@@H]2[C@H](CC[C@]3(C)C(=O)CC[C@@H]23)[C@@]2(C)CCC(=O)C=C12`: on Aromatase [1], the IC50 is 105 nM and the “inhibition (INH)” value is listed as “Dose-dependent effect”. The inhibition at 2 µM on Aromatase [2] is 97.2%. The inhibition at 10 µM on Aromatase [3] was found to be 96.5%.

On to `C[C@H]1C[C@@H]2[C@H](CC[C@]3(C)C(=O)CC[C@@H]23)[C@@]2(C)CCC=C[C@H]12`, for which, on Aromatase [1], the IC50 was 560 nM. Further, the inhibition at 2 µM on Aromatase [2] was determined as 93.5%. In addition, at Aromatase [3], the inhibition at 10 µM was 88.7%.

`C=CC[C@@H]1CC2=CC(=O)C=C[C@]2(C)[C@H]2CC[C@]3(C)C(=O)CC[C@H]3[C@H]12`: at Aromatase [3], the inhibition at 10 µM worked out at 96.3%.

Consider `C[C@@H]1C[C@@H]2[C@H]3O[C@H]3CC[C@]2(C)[C@H]2CC[C@]3(C)C(=O)CC[C@H]3[C@H]12`, for which the inhibition at 2 µM at Aromatase [2] was 13.7%.

As for `C[C@]12CCC(=O)C=C1C[C@@H](O)[C@@H]1[C@@H]2CC[C@]2(C)C(=O)CC[C@@H]12`, on Aromatase [2], the inhibition at 2 µM amounted to 49.8%.

Take `C[C@H]1C[C@@H]2[C@H](CC[C@]3(C)C(=O)CC[C@@H]23)[C@@]2(C)CCCC=C12`: the outcome in the data set with MCF7 was Active. Moreover, the IC50 on Aromatase [1] stood at 170 nM. Moreover, the inhibition at 2 µM on Aromatase [2] was 96.7%.
